Results on 14 compounds are retold here after patent publication US7713979B2, “Cycloalkyl lactam derivatives as inhibitors of 11-beta-hydroxysteroid dehydrogenase 1” (Eli Lilly and Company, priority 2004, dated 2010).

Chain of recombinant human 11β-HSD type 1 enzyme (P28845 whole entry): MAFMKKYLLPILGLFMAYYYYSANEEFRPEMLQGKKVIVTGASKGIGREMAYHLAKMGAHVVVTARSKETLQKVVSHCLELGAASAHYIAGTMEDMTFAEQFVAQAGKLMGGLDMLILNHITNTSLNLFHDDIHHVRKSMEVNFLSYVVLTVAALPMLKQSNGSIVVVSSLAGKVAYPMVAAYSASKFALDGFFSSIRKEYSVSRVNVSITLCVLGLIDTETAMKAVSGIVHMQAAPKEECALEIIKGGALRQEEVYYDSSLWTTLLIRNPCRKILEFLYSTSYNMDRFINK

One experiment deals with cortisone to cortisol conversion (11β-HSD type 1). Nature of the experiment: Acute In Vivo Cortisone Conversion Assay. The following applies: mice dosed orally, subcutaneous cortisone challenge 30 mg/kg, serum cortisol by LC-MS/MS. As for the experimental part:
Acute In Vivo Cortisone Conversion Assay
In general, compounds are dosed orally into mice, the mice are challenged with a subcutaneous injection of cortisone at a set timepoint after compound injection, and the blood of each animal is collected some time later. Separated serum is then isolated and analyzed for levels of cortisone and cortisol by LC-MS/MS, followed by calculation of mean cortisol and percent inhibition of each dosing group. Specifically, male C57BL/6 mice are obtained from Harlan Sprague Dawley at average weight of 25 grams. Exact weights are taken upon arrival and the mice randomized into groups of similar weights. Compounds are prepared in 1% w-w HEC, 0.25% w-w polysorbate 80, 0.05% w-w Dow Coming antifoam #1510-US at various doses based on assumed average weight of 25 grams. Compounds are dosed orally, 200 μl per animal, followed by a subcutaneous dose, 200 μl per animal, of 30 mg/kg cortisone at 1 to 24 hours post compound dose. At 10 minutes post cortisone challenge, each animal is euthanized for 1 minute in a CO2 chamber, followed by blood collection via cardiac puncture into serum separator tubes. Once fully clotted, tubes are spun at 2500×g, 4° C. for 15 minutes, the serum transferred to wells of 96-well plates (Coming Inc, Costar #4410, cluster tubes, 1.2 ml, polypropylene), and the plates are frozen at −20° C. until analysis by LC-MS/MS. For analysis, serum samples are thawed and the proteins are precipitated by the addition of acetonitrile containing d4-cortisol internal standard. Samples are vortex mixed and centrifuged. The supernatant is removed and dried under a stream of warm nitrogen. Extracts are reconstituted in methanol/water (1:1) and injected onto the LC-MS/MS system. The levels of cortisone and cortisol are assayed by selective reaction monitoring mode following positive ACPI ionization on a triple quadrupole mass spectrophotometer. […] Examples 91, 135, 119, 15, and 99 were active in the Acute In Vivo Cortisone Conversion Assay.
Regarding `O=C1C(Cc2ccc(Cl)cc2Cl)CCN1[C@H]1CC[C@H](O)CC1` (relative stereo) [Example 15, 3-(2,4-Dichloro-benzyl)-1-(trans-4-hydroxy-cyclohexyl)-pyrrolidin-2-one], the “activity in the Acute In Vivo Cortisone Conversion Assay” value is recorded as “active”. Same read-out and setting: to `CC1CCCCC1N1CCC(Cc2c(F)cccc2Cl)C1=O` (centres unmarked) [Example 65] belongs “inactive”.

For the compound `COc1ccc(Cl)c(CC2CCN(C3CCCCC3)C2=O)c1Cl` (centres unmarked) [Example 69], the “activity in the Acute In Vivo Cortisone Conversion Assay” value was “inactive”. Same read-out and setting: with `Cl.O=C1C(Cc2ccc(-c3ccncc3)cc2Cl)CCN1C1CCCCC1` (centres unmarked) [Example 91] the entry was “active”; with `CC1CCCCC1N1CCC(Cc2ccc(-c3cccnc3)cc2Cl)C1=O` (centres unmarked) [Example 99], “active”; with `CC1CCCCC1N1CCC(Cc2c(Cl)cc(-c3ccncc3)cc2Cl)C1=O.Cl` (centres unmarked) [Example 119], “active”. On the same count and under the same terms, with `O=C1C(Cc2c(Cl)cc(Cl)cc2Cl)CCN1C1CCC(O)CC1` (centres unmarked) [Example 135] the entry was “active”.

Another experiment addresses recombinant human 11β-HSD type 1 enzyme (Homo sapiens, UniProt P28845). As to the kind of experiment: 11β-HSD type 1 enzyme assay (NADPH fluorescence). The format is biochemical. The following applies: three hour incubation at room temperature. As for the experimental part: 11β-HSD Type 1 Enzyme Assay Human 11β-HSD type 1 activity is measured by assaying NADPH production by fluorescence assay. Solid compounds are dissolved in DMSO to a concentration of 10 mM. Twenty microliters of each are then transferred to a column of a 96-well polypropylene Nunc plate where they are further diluted 50-fold followed by subsequent two-fold titration, ten times across the plate with additional DMSO using a Tecan Genesis 200 automated system. Plates are then transferred to a Tecan Freedom 200 system with an attached Tecan Temo 96-well head and an Ultra 384 plate reader. Reagents are supplied in 96-well polypropylene Nunc plates and are dispensed individually into black 96-well Molecular Devices High Efficiency assay plates (40 μL/well capacity) in the following fashion: 9 μL/well of substrate (2.22 mM NADP, 55.5 μM […], 10 mM Tris, 0.25% Prionex, 0.1% Triton X100), 3 μL/well of water to compound wells or 3 μL to control and standard wells, 6 μL/well recombinant human 11β-HSD type 1 enzyme, 2 μL/well of compound dilutions. For ultimate calculation of percent inhibition, a series of wells are added that represent assay minimum and maximum: one set containing substrate with 667 μM carbenoxolone (background), and another set containing substrate and enzyme without compound (maximum signal). Final DMSO concentration is 0.5% for all compounds, controls and standards. Plates are then placed on a shaker by the robotic arm of the Tecan for 15 seconds before being covered and stacked for a three hour incubation period at room temperature. Upon completion of this incubation, the Tecan robotic arm removes each plate individually from the stacker and places them in position for addition of 5 μL/well of a 250 μM carbenoxolone solution to stop the enzymatic reaction. Plates are then shaken once more for 15 seconds then placed into an Ultra 384 microplate reader (355EX/460EM) for detection of NADPH fluorescence.
In the case of `O=C1C(Cc2ccc(-c3ccncc3)cc2Cl)CCN1C1CCCCC1` (centres unmarked), the IC50 (in general, the concentration at which inhibition is half-maximal) was 0.384 µM.

As to `CC1CCCCC1N1CCC(Cc2c(Cl)cc(-c3ccncc3)cc2Cl)C1=O` (centres unmarked), the IC50 was determined as 0.565 µM.

Turning to `O=C1C(Cc2ccc(Cl)cc2Cl)CCN1C1CCC(O)CC1` (centres unmarked), the IC50 came out at 0.378 µM. Same read-out and setting: to `O=C1C(Cc2ccc(-c3cccnc3)cc2Cl)CCCN1C1CCCCC1` (centres unmarked) belongs 0.494 µM; to `O=C1C(Cc2c(F)cccc2Cl)CCCN1C1CCCCC1` (centres unmarked), 0.879 µM; to `O=C1C(Cc2c(Cl)cc(Cl)cc2Cl)CCN1C1CCC(O)CC1` (centres unmarked) [drawing 379], 0.23 µM. Same read-out and setting: with `CC1CCCCC1N1CCC(Cc2ccc(-c3cccnc3)cc2Cl)C1=O` (centres unmarked) [drawing 383] the figure was 0.273 µM.
